Reference: US8609690B2, “Aryl- and heteroarylcarbonyl derivatives of substituted nortropanes, medicaments containing such compounds and their use” (Boehringer Ingelheim International GmbH, priority 2008, dated 2013)

Each compound was assayed against T1, 11β-HSD 1 (Homo sapiens, UniProt P28845) (assay: In vitro inhibition of 11β-HSD 1, HTRF detection of cortisol generated by human liver microsomes). Settings: 1 μM test compound, 100% indicates no inhibition, zero or below zero indicates complete inhibition (relative to carbenoxolone).
T1 construct: detecting cortisol generated from cortisterone by human liver microsomes; from tissue; host or cells: human liver microsomes
Format: biochemical
Outline: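 Human liver microsomes with test compound were incubated 1 h at 37 °C in Tris buffer, pH 6.0, with 200 μM NADPH and 80 nM cortisone. Cortisol formed was detected by competitive HTRF immunoassay (665/615 nm ratio) and calibrated against a cortisol standard curve. Values are activities at 1 μM compound relative to carbenoxolone, where 100% indicates no inhibition.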

T1 sequence (P28845 whole entry): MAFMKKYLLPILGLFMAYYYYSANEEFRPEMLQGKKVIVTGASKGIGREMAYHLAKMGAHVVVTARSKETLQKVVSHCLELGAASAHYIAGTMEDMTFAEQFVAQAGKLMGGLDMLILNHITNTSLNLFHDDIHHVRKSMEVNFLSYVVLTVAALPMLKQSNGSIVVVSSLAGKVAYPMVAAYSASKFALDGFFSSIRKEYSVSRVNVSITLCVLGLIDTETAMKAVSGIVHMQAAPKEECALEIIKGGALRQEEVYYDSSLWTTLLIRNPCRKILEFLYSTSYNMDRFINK

Row | Compound | Inhibitory activity on 11β-HSD 1, % CTL
1 | COc1ccc(C(=O)N2[C@@H]3CC[C@H]2C[C@@H](c2ccc(F)cc2)C3)cc1C [Example 170, endo-[3-(4-Fluoro-phenyl)-8-aza-bicyclo[3.2.1]oct-8-yl]-(4-methoxy-3-methyl-phenyl)-methanone] | −34 % CTL
2 | COc1cc(C(=O)N2[C@@H]3CC[C@H]2C[C@@H](c2ccc(F)cc2)C3)ccc1O [Example 171, endo-[3-(4-Fluoro-phenyl)-8-aza-bicyclo[3.2.1]oct-8-yl]-(4-hydroxy-3-methoxy-phenyl)-methanone] | −26 % CTL
3 | O=C(c1cc(F)c(O)c(F)c1)N1[C@@H]2CC[C@H]1C[C@@H](c1ccc(F)cc1)C2 [Example 172, endo-(3,5-Difluoro-4-hydroxy-phenyl)-[3-(4-fluoro-phenyl)-8-aza-bicyclo[3.2.1]oct-8-yl]-methanone] | 0 % CTL
4 | Nc1ccc(C(=O)N2[C@@H]3CC[C@H]2C[C@@H](c2ccc(F)cc2)C3)cc1Cl [Example 173, endo-(4-Amino-3-chloro-phenyl)-[3-(4-fluoro-phenyl)-8-aza-bicyclo[3.2.1]oct-8-yl]-methanone] | −46 % CTL
5 | O=C(c1ccc(O)c(C(F)(F)F)c1)N1[C@@H]2CC[C@H]1C[C@@H](c1ccc(F)cc1)C2 [Example 174, endo-[3-(4-Fluoro-phenyl)-8-aza-bicyclo[3.2.1]oct-8-yl]-(4-hydroxy-3-trifluoromethyl-phenyl)-methanone] | −40 % CTL
6 | COc1cc(C(=O)N2[C@@H]3CC[C@H]2C[C@@H](c2ccc(F)cc2)C3)cc(Cl)c1O [Example 175, endo-(3-Chloro-4-hydroxy-5-methoxy-phenyl)-[3-(4-fluoro-phenyl)-8-aza-bicyclo[3.2.1]oct-8-yl]-methanone] | −37 % CTL
7 | Nc1ccc(C(=O)N2[C@@H]3CC[C@H]2C[C@@H](c2ccc(F)cc2)C3)cc1F [Example 176, endo-(4-Amino-3-fluoro-phenyl)-[3-(4-fluoro-phenyl)-8-aza-bicyclo[3.2.1]oct-8-yl]-methanone] | −42 % CTL
8 | Nc1ccc(C(=O)N2[C@@H]3CC[C@H]2C[C@@H](c2ccc(F)cc2)C3)cc1 [Example 177, endo-(4-Amino-phenyl)-[3-(4-fluoro-phenyl)-8-aza-bicyclo[3.2.1]oct-8-yl]-methanone] | −44 % CTL
9 | Nc1c(Cl)cc(C(=O)N2[C@@H]3CC[C@H]2C[C@@H](c2ccc(F)cc2)C3)cc1Cl [Example 178, endo-(4-Amino-3,5-dichloro-phenyl)-[3-(4-fluoro-phenyl)-8-aza-bicyclo[3.2.1]oct-8-yl]-methanone] | −22 % CTL
10 | O=C(c1cc(F)c(O)c(Cl)c1)N1[C@@H]2CC[C@H]1C[C@@H](c1ccc(F)cc1)C2 [Example 179, endo-(3-Chloro-5-fluoro-4-hydroxy-phenyl)-[3-(4-fluoro-phenyl)-8-aza-bicyclo[3.2.1]oct-8-yl]-methanone] | −11 % CTL
11 | O=C(c1ccc2[nH]ncc2c1)N1[C@@H]2CC[C@H]1C[C@@H](c1ccc(F)cc1)C2 [Example 180, endo-[3-(4-Fluoro-phenyl)-8-aza-bicyclo[3.2.1]oct-8-yl]-(1H-indazol-5-yl)-methanone] | −41 % CTL
12 | COc1cc(C(=O)N2[C@@H]3CC[C@H]2C[C@@H](c2ccc(F)cc2)C3)cc(OC)c1O [Example 181, endo-[3-(4-Fluoro-phenyl)-8-aza-bicyclo[3.2.1]oct-8-yl]-(4-hydroxy-3,5-dimethoxy-phenyl)-methanone] | 18 % CTL
13 | endo-[3-(3,4-Difluoro-phenyl)-8-aza-bicyclo[3.2.1]oct-8-yl]-(2,3-dihydro-benzo[1,4]dioxin-6-yl)-methanone [Example 137] | 16 % CTL
